Experiments:
[1] = biological target: α1β2γ2 GABAA receptor (Homo sapiens (Human), UniProt P14867+P47870); assay: Patch clamp electrophysiology of recombinant α1β2γ2 GABAA receptors in LTK cells; type: cell-based; settings: for activity at 10 µM / Emax: LTK; for activity at 10 µM / α1β2γ2 GABA Qpatch in Ltk (Efficacy at 10 μm): 10 μM compound, Qpatch, Ltk cells, GABA EC20 2 μM; for activity at 10 µM: read-out: α1β2γ2 GABA Qpatch in Ltk (Efficacy at 10 μm); for Emax / EC50: potentiation of GABA EC20 (2 μM) current; for Emax: read-out: GABAa alpha1 (α1β2γ2) Emax (%); for EC50: read-out: GABAa alpha1 (α1β2γ2)EC50
Protocol: (§1) Cellular electrophysiology is used to measure the pharmacological properties of our GABAA receptor modulators in heterologous cell systems. Each compound is tested for its ability to affect GABA mediated currents at a submaximal agonist dose (GABA EC20=2 μM). LTK cells are stably transfected with the α1β2γ2 subunits of the GABA receptor and CHO cells are transiently transfected with the α4β3δ subunits via the Lipofecatamine method. Cells were passaged at a confluence of about 50-80% and then seeded onto 35 mm sterile culture dishes containing 2 ml culture complete medium without antibiotics or antimycotics. Confluent clusters of cells are electrically coupled (Pritchett et al., 1988). Because responses in distant cells are not adequately voltage clamped and because of uncertainties about the extent of coupling (Verdoorn et al., 1990), cells were cultivated at a density that enables the recording of single cells (without visible connections to other cells).
(§2) Whole cell currents were measured with HEKA EPC-10 amplifiers using PatchMaster software or by using the high throughput QPatch platform (Sophion). Bath solution for all experiments contained (in mM): NaCl 137 mM, KCl 4 mM, CaCl2 1.8 mM, MgCl2 1 mM, HEPES 10 mM, D-Glucose 10 mM, pH (NaOH) 7.4. In some cases 0.005% cremophor was also added. Intracellular (pipette) solution contained: KCl 130 mM, MgCl2 1 mM, Mg-ATP 5 mM, HEPES 10 mM, EGTA 5 mM, pH 7.2. During experiments, cells and solutions were maintained at room temperature (19° C.-30° C.). For manual patch clamp recordings, cell culture dishes were placed on the dish holder of the microscope and continuously perfused (1 ml/min) with bath solution. After formation of a Gigaohm seal between the patch electrodes and the cell (pipette resistance range: 2.5 MΩ-6.0 MΩ; seal resistance range: >1 GΩ) the cell membrane across the pipette tip was ruptured to assure electrical access to the cell interior (whole-cell patch-configuration). For experiments using the QPatch system, cells were transferred as suspension to the QPatch system in the bath solution and automated whole cell recordings were performed.
(§3) Cells were voltage clamped at a holding potential of −80 mV. For the analysis of test articles, GABA receptors were stimulated by 2 μM GABA after sequential pre-incubation of increasing concentrations of the test article. Pre-incubation duration was 30 s and the duration of the GABA stimulus was 2 s. Test articles were dissolved in DMSO to form stock solutions (10 mM). Test articles were diluted to 0.01, 0.1, 1, and 10 μM in bath solution. All concentrations of test articles were tested on each cell. The relative percentage potentiation was defined as the peak amplitude in response to GABA EC20 in the presence of the test article divided by the peak amplitude in response to GABA EC20 alone, multiplied by 100.

[2] = biological target: α4β3δ GABAA receptor (Homo sapiens (Human), UniProt P28472+P48169); assay: Patch clamp electrophysiology of recombinant α4β3δ GABAA receptors in CHO cells; type: cell-based; settings: 10 μM compound, GABA EC20 2 μM; for activity at 10 µM: manual patch, read-out: α4β3δ GABA Manual Patch in CHO (Efficacy at 10 μM)
Protocol: as §1, §2, §3

SMILES	activity at 10 µM [1] [%]	also measured
C[C@@]1(O)CC[C@H]2[C@H](CC[C@@H]3[C@@H]2CC[C@]2(C)[C@@H](C(=O)Cn4nc5ccncc5n4)CC[C@@H]32)C1 [SA-11]	> 500	activity at 10 µM [2]: 100 to 500%
COC[C@@]1(O)CC[C@H]2[C@@H](CC[C@@H]3[C@@H]2CC[C@]2(C)[C@@H](C(=O)Cn4nc5ccccc5n4)CC[C@@H]32)C1 [SB-50]	10 to 100	activity at 10 µM [2]: 100 to 500%
C[C@@]1(O)CC[C@H]2[C@@H](CC[C@@H]3[C@@H]2CC[C@]2(C)[C@@H](C(=O)Cn4cc5ccncc5n4)CC[C@@H]32)C1 [SB-9]		α1β2γ2 GABA Qpatch in Ltk (Efficacy at 10 μm) [1]: C (“C” indicates an efficacy value of >500%); α4β3δ GABA Manual Patch in CHO (Efficacy at 10 μM) [2]: B (“B” indicates an efficacy value of >100-500%)
COC[C@@]1(O)CC[C@H]2[C@H](CC[C@@H]3[C@@H]2CC[C@]2(C)[C@@H](C(=O)Cn4nc5ccncc5n4)CC[C@@H]32)C1 [SA-125]	> 500	activity at 10 µM [2]: 100 to 500%
C[C@@]1(O)CC[C@H]2[C@H](CC[C@@H]3[C@@H]2CC[C@]2(C)[C@@H](C(=O)Cn4cc5ncc(Cl)cc5n4)CC[C@@H]32)C1 [SA-26]	> 500	activity at 10 µM [2]: 100 to 500%
C[C@@]1(O)CC[C@H]2[C@H](CC[C@@H]3[C@@H]2CC[C@]2(C)[C@@H](C(=O)Cn4nc5ccc(F)cc5n4)CC[C@@H]32)C1 [SA-63]		activity at 10 µM [2]: 100 to 500%
Cc1cc2cn(CC(=O)[C@H]3CC[C@H]4[C@@H]5CC[C@@H]6C[C@](C)(O)CC[C@@H]6[C@H]5CC[C@]34C)nc2cn1 [SA-24]	100 to 500	activity at 10 µM [2]: 100 to 500%
C[C@@]1(O)CC[C@H]2[C@H](CC[C@@H]3[C@@H]2CC[C@]2(C)[C@@H](C(=O)Cn4cc5cccnc5n4)CC[C@@H]32)C1 [SA-18]		α1β2γ2 GABA Qpatch in Ltk (Efficacy at 10 μm) [1]: C (“C” indicates an efficacy value of >500%); Emax [1]: 500 to 1000%; EC50 [1]: > 2000 nM; α4β3δ GABA Manual Patch in CHO (Efficacy at 10 μM) [2]: C (“C” indicates an efficacy value of >500%)
C[C@@]1(O)CC[C@H]2[C@H](CC[C@@H]3[C@@H]2CC[C@]2(C)[C@@H](C(=O)Cn4nc5cccnc5n4)CC[C@@H]32)C1 [SA-14]	> 500	activity at 10 µM [2]: 100 to 500%
C[C@@]1(O)CC[C@H]2[C@H](CC[C@@H]3[C@@H]2CC[C@]2(C)[C@@H](C(=O)Cn4cc5cncnc5n4)CC[C@@H]32)C1 [SA-35]	100 to 500	activity at 10 µM [2]: > 500%
COc1ccc2nn(CC(=O)[C@H]3CC[C@H]4[C@@H]5CC[C@@H]6C[C@](C)(O)CC[C@@H]6[C@H]5CC[C@]34C)nc2c1 [SA-49]		activity at 10 µM [2]: > 500%
C[C@@]1(O)CC[C@H]2[C@H](CC[C@@H]3[C@@H]2CC[C@]2(C)[C@@H](C(=O)Cn4nnc5cccc(Cl)c54)CC[C@@H]32)C1 [SA-77]	> 500	
C[C@@]1(O)CC[C@H]2[C@H](CC[C@@H]3[C@@H]2CC[C@]2(C)[C@@H](C(=O)Cn4ncc5cccnc54)CC[C@@H]32)C1 [SA-19]		α1β2γ2 GABA Qpatch in Ltk (Efficacy at 10 μm) [1]: B (“B” indicates an efficacy value of >100-500%); Emax [1]: 500 to 1000%; EC50 [1]: > 2000 nM
Cc1cc2cnn(CC(=O)[C@H]3CC[C@H]4[C@@H]5CC[C@@H]6C[C@](C)(O)CC[C@@H]6[C@H]5CC[C@]34C)c2cn1 [SA-25]	> 500	
COC[C@@]1(O)CC[C@H]2[C@@H](CC[C@@H]3[C@@H]2CC[C@]2(C)[C@@H](C(=O)Cn4nnc5cnccc54)CC[C@@H]32)C1 [SB-43]	100 to 500	
COC[C@@]1(O)CC[C@H]2[C@@H](CC[C@@H]3[C@@H]2CC[C@]2(C)[C@@H](C(=O)Cn4cc5ncccc5n4)CC[C@@H]32)C1 [SB-47]	> 500	
CC[C@@]1(O)CC[C@H]2[C@@H](CC[C@@H]3[C@@H]2CC[C@]2(C)[C@@H](C(=O)Cn4nc5ccc(F)cc5n4)CC[C@@H]32)C1 [SB-39]	10 to 100	
C[C@@]1(O)CC[C@H]2[C@@H](CC[C@@H]3[C@@H]2CC[C@]2(C)[C@@H](C(=O)Cn4ncc5ccncc54)CC[C@@H]32)C1 [SB-10]		α1β2γ2 GABA Qpatch in Ltk (Efficacy at 10 μm) [1]: B (“B” indicates an efficacy value of >100-500%)

SMILES	activity at 10 µM [1] [%]	also measured
C[C@]12CC[C@H]3[C@@H](CC[C@H]4C[C@@](O)(CF)CC[C@@H]43)[C@@H]1CC[C@@H]2C(=O)Cn1ncc2ncccc21 [SB-17]	10 to 100	
COc1ccc2nn(CC(=O)[C@H]3CC[C@H]4[C@@H]5CC[C@@H]6C[C@](C)(O)CC[C@@H]6[C@H]5CC[C@]34C)nc2c1 [SA-47]	> 500	
C[C@]12CC[C@H]3[C@@H](CC[C@@H]4C[C@@](O)(C(F)F)CC[C@@H]43)[C@@H]1CC[C@@H]2C(=O)Cn1cc2ncccc2n1 [SA-93]	> 500	
C[C@@]1(O)CC[C@H]2[C@H](CC[C@@H]3[C@@H]2CC[C@]2(C)[C@@H](C(=O)Cn4ncc5cc(F)ccc54)CC[C@@H]32)C1 [SA-17]	100 to 500	
C[C@]12CC[C@H]3[C@@H](CC[C@@H]4C[C@@](O)(C(F)F)CC[C@@H]43)[C@@H]1CC[C@@H]2C(=O)Cn1nnc2cnccc21 [SA-96]	100 to 500	
CC[C@@]1(O)CC[C@H]2[C@H](CC[C@@H]3[C@@H]2CC[C@]2(C)[C@@H](C(=O)Cn4nnc5cnccc54)CC[C@@H]32)C1 [SA-112]	100 to 500	
COC[C@@]1(O)CC[C@H]2[C@H](CC[C@@H]3[C@@H]2CC[C@]2(C)[C@@H](C(=O)Cn4ncc5ccncc54)CC[C@@H]32)C1 [SA-119]	> 500	
C[C@]12CC[C@H]3[C@@H](CC[C@@H]4C[C@@](O)(C(F)F)CC[C@@H]43)[C@@H]1CC[C@@H]2C(=O)Cn1ncc2ncccc21 [SA-94]	100 to 500	
Cc1cccc2c1nnn2CC(=O)[C@H]1CC[C@H]2[C@@H]3CC[C@@H]4C[C@](C)(O)CC[C@@H]4[C@H]3CC[C@]12C [SA-67]	> 500	
C[C@]12CC[C@H]3[C@@H](CC[C@H]4C[C@@](O)(CF)CC[C@@H]43)[C@@H]1CC[C@@H]2C(=O)Cn1nnc2ccccc21 [SB-12]	100 to 500	
CCOC[C@@]1(O)CC[C@H]2[C@@H](CC[C@@H]3[C@@H]2CC[C@]2(C)[C@@H](C(=O)Cn4cc5ccncc5n4)CC[C@@H]32)C1 [SB-57]	100 to 500	
C[C@@]1(O)CC[C@H]2[C@@H](CC[C@@H]3[C@@H]2CC[C@]2(C)[C@@H](C(=O)Cn4ncc5ncccc54)CC[C@@H]32)C1 [SB-5]		α1β2γ2 GABA Qpatch in Ltk (Efficacy at 10 μm) [1]: B (“B” indicates an efficacy value of >100-500%)
C[C@]12CC[C@H]3[C@@H](CC[C@H]4C[C@@](O)(CF)CC[C@@H]43)[C@@H]1CC[C@@H]2C(=O)Cn1nc2ccc(F)cc2n1 [SG-24]	100 to 500	
Cc1ccc2c(c1)nnn2CC(=O)[C@H]1CC[C@H]2[C@@H]3CC[C@@H]4C[C@](C)(O)CC[C@@H]4[C@H]3CC[C@]12C [SA-43]	100 to 500	
C[C@@]1(O)CC[C@H]2[C@@H](CC[C@@H]3[C@@H]2CC[C@]2(C)[C@@H](C(=O)Cn4nnc5ccccc54)CC[C@@H]32)C1 [SB-1]	100 to 500	
C[C@]12CC[C@H]3[C@@H](CC[C@H]4C[C@@](O)(CF)CC[C@@H]43)[C@@H]1CC[C@@H]2C(=O)Cn1nc2ccccc2n1 [SB-13]	100 to 500	
COC[C@@]1(O)CC[C@H]2[C@H](CC[C@@H]3[C@@H]2CC[C@]2(C)[C@@H](C(=O)Cn4cc5ncccc5n4)CC[C@@H]32)C1 [SA-116]	> 500	
C[C@@]1(O)CC[C@H]2[C@H](CC[C@@H]3[C@@H]2CC[C@]2(C)[C@@H](C(=O)Cn4ncc5ncncc54)CC[C@@H]32)C1 [SA-33]	100 to 500	

From patent US11261211B2, “19-NOR neuroactive steroids and methods of use thereof” (Sage Therapeutics, Inc., priority 2013, dated 2022)
